This is an account of results in patent US8921385B2, “5-substituted quinazolinone derivatives and compositions comprising and methods of using the same” (Celgene Corporation, priority 2006, dated 2014).

Structures can show the parent of a compound that is named as a salt.

As for `Cc1nc2cccc(CN)c2c(=O)n1C1CCC(=O)NC1=O.Cl` (stereo not drawn), the melting point is 256 °C (dec.). The result for `Cc1nc2cccc(NC(=O)CN(C)C)c2c(=O)n1C1CCC(=O)NC1=O` (stereo not drawn) (as salt: chloride) [Example 6.25, 2-Dimethylamino-N-[3-(2,6-Dioxo-Piperidin-3-yl)-2-Methyl-4-Oxo-3,4-Dihydro-Quinazolin-5-yl]-Acetamide Hydrogen Chloride] reads 256 to 258 °C.

The molecule `Cc1cccc2ncn(C3CCC(=O)NC3=O)c(=O)c12` (stereo not drawn) [Example 6.1, 3-(5-Methyl-4-Oxo-4H-Quinazolin-3-yl)-Piperidine-2,6-Dione] gave a melting point of 262 to 264 °C. The result for `Cc1cccc2nc(C)n(C3CCC(=O)NC3=O)c(=O)c12` (stereo not drawn) [Example 6.2, 3-(2,5-Dimethyl-4-Oxo-4H-Quinazolin-3-yl)-Piperidine-2,6-Dione] reads 292 to 294 °C. `Cc1cccc2nc(O)n(C3CCC(=O)NC3=O)c(=O)c12` (stereo not drawn) [Example 6.5, 3-(2-Hydroxy-5-Methyl-4-Oxo-4H-Quinazolin-3-yl)-Piperidine-2,6-Dione] registered a melting point of 373 to 375 °C. As for `Cc1cccc2nc(C)n([C@@]3(C)CCC(=O)NC3=O)c(=O)c12` [Example 6.7, 3R-3-(2,5-Dimethyl-4-Oxo-4H-Quinazolin-3-yl)-3-Methyl-Piperidine-2,6-Dione], the figure is 298 to 301 °C; as for `COc1cccc2nc(C)n(C3CCC(=O)NC3=O)c(=O)c12` (stereo not drawn) [Example 6.8, 3-(5-Methoxy-2-Methyl-4-Oxo-4H-Quinazolin-3-yl)-Piperidine-2,6-Dione], 274 to 276 °C.

Turning to `Cc1nc2cccc(Cl)c2c(=O)n1C1CCC(=O)NC1=O` (stereo not drawn) [Example 6.10, 3-(5-Chloro-2-Methyl-4-Oxo-4H-Quinazolin-3-yl)-Piperidine-2,6-Dione], the melting point is 315 °C (dec.).

Regarding `Cc1nc2cccc(C(F)(F)F)c2c(=O)n1C1CCC(=O)NC1=O` (stereo not drawn) [Example 6.11, 3-(2-Methyl-4-Oxo-5-Trifluoromethyl-4H-Quinazolin-3-yl)-Piperidine-2,6-Dione], the melting point lay within 268 to 270 °C. The result for `O=C1CCC(n2cnc3cccc(Cl)c3c2=O)C(=O)N1` (stereo not drawn) [Example 6.12, 3-(5-Chloro-4-Oxo-4H-Quinazolin-3-yl)-Piperidine-2,6-Dione] reads 308 to 310 °C; that for `CCc1nc2cccc(C)c2c(=O)n1C1CCC(=O)NC1=O` (stereo not drawn) [Example 6.13, 3-(2-Ethyl-5-Methyl-4-Oxo-4H-Quinazolin-3-yl)-Piperidine-2,6-Dione], 228 to 230 °C. As for `CCCCc1nc2cccc(C)c2c(=O)n1C1CCC(=O)NC1=O` (stereo not drawn) [Example 6.14, 3-(2-Butyl-5-Methyl-4-Oxo-4H-Quinazolin-3-yl)-Piperidine-2,6-Dione], the figure is 190 to 192 °C. The result for `Cc1cccc2nc(C(F)(F)F)n(C3CCC(=O)NC3=O)c(=O)c12` (stereo not drawn) [Example 6.15, 3-(5-Methyl-4-Oxo-2-Trifluoromethyl-4H-Quinazolin-3-yl)-Piperidine-2,6-Dione] reads 308 to 310 °C; that for `Cc1cccc2nc(-c3ccccc3)n(C3CCC(=O)NC3=O)c(=O)c12` (stereo not drawn) [Example 6.16, 3-(5-Methyl-4-Oxo-2-Phenyl-4H-Quinazolin-3-yl)-Piperidine-2,6-Dione], 298 to 300 °C.

For `Cc1nc2cccc(N)c2c(=O)n1[C@]1(C)CCC(=O)NC1=O` [Example 6.19, (R)-3-(5-Amino-2-Methyl-4-Oxoquinazolin-3(4H)-yl)-3-Methylpiperidine-2,6-Dione], the melting point lay within 295 to 297 °C. Molecule `COCC(=O)Nc1cccc2nc(C)n(C3CCC(=O)NC3=O)c(=O)c12` (stereo not drawn) [Example 6.20, N-[3-(2,6-Dioxo-Piperidin-3-yl)-2-Methyl-4-Oxo-3,4-Dihydro-Quinazolin-5-yl]-2-Methoxy-Acetamide] registered a melting point of 282 to 284 °C. The result for `CC(=O)Nc1cccc2nc(C)n(C3CCC(=O)NC3=O)c(=O)c12` (stereo not drawn) [Example 6.21, N-[3-(2,6-Dioxo-Piperidin-3-yl)-2-Methyl-4-Oxo-3,4-Dihydro-Quinazolin-5-yl]-Acetamide] reads 320 to 322 °C; that for `CCCCCCC(=O)Nc1cccc2nc(C)n(C3CCC(=O)NC3=O)c(=O)c12` (stereo not drawn) [Example 6.23, Heptanoic Acid [3-(2,6-Dioxo-Piperidin-3-yl)-2-Methyl-4-Oxo-3,4-Dihydro-Quinazolin-5-yl]-Amide], 230 to 232 °C. The result for `CCOCC(=O)Nc1cccc2nc(C)n(C3CCC(=O)NC3=O)c(=O)c12` (stereo not drawn) [Example 6.24, N-[3-(2,6-Dioxo-Piperidin-3-yl)-2-Methyl-4-Oxo-3,4-Dihydro-Quinazolin-5-yl]-2-Ethoxy-Acetamide] reads 291 to 293 °C; that for `Cc1nc2cccc(NC(=O)CCl)c2c(=O)n1C1CCC(=O)NC1=O` (stereo not drawn) [Example 6.26, 2-Chloro-N-[3-(2,6-Dioxo-Piperidin-3-yl)-2-Methyl-4-Oxo-3,4-Dihydro-Quinazolin-5-yl]-Acetamide], 275 to 277 °C; that for `CCOC(=O)Nc1cccc2nc(C)n(C3CCC(=O)NC3=O)c(=O)c12` (stereo not drawn) [Example 6.27, [3-(2,6-Dioxo-Piperidin-3-yl)-2-Methyl-4-Oxo-3,4-Dihydro-Quinazolin-5-yl]-Carbamic Acid Ethyl Ester], 284 to 286 °C (dec.).

`Cc1nc2cccc(CNC(=O)OC(C)(C)C)c2c(=O)n1C1CCC(=O)NC1=O` (stereo not drawn) [Example 6.28, [3-(2,6-Dioxo-Piperidin-3-yl)-2-Methyl-4-Oxo-3,4-Dihydro-Quinazolin-5-ylmethyl]-Carbamic Acid Tert-Butyl Ester] yielded a melting point of 206 to 208 °C.

The molecule `CCCC(=O)NCc1cccc2nc(C)n(C3CCC(=O)NC3=O)c(=O)c12` (stereo not drawn) [Example 6.31, N-[3-(2,6-Dioxo-Piperidin-3-yl)-2-Methyl-4-Oxo-3,4-Dihydro-Quinazolin-5-ylmethyl]-Butyramide] yielded a melting point of 250 to 252 °C. The result for `CCCCCCC(=O)NCc1cccc2nc(C)n(C3CCC(=O)NC3=O)c(=O)c12` (stereo not drawn) [Example 6.32, Heptanoic Acid [3-(2,6-Dioxo-Piperidin-3-yl)-2-Methyl-4-Oxo-3,4-Dihydro-Quinazolin-5-ylmethyl]-Amide] reads 208 to 210 °C.

With `Cc1nc2cccc(CNC(=O)CC(C)(C)C)c2c(=O)n1C1CCC(=O)NC1=O` (stereo not drawn) [Example 6.33, N-[3-(2,6-Dioxo-Piperidin-3-yl)-2-Methyl-4-Oxo-3,4-Dihydro-Quinazolin-5-ylmethyl]-3,3-Dimethyl-Butyramide], the melting point is 212 to 214 °C. As for `Cc1nc2cccc(CNC(=O)CN(C)C)c2c(=O)n1C1CCC(=O)NC1=O` (stereo not drawn) [Example 6.35, 2-Dimethylamino-N-[3-(2,6-Dioxo-Piperidin-3-yl)-2-Methyl-4-Oxo-3,4-Dihydro-Quinazolin-5-ylmethyl]-Acetamide], the figure is 275 °C (dec.); as for `Cc1nc2cccc(NC(=O)c3cccc(Cl)c3)c2c(=O)n1C1CCC(=O)NC1=O` (stereo not drawn) [Example 6.36, 3-Chloro-N-[3-(2,6-Dioxo-Piperidin-3-yl)-2-Methyl-4-Oxo-3,4-Dihydro-Quinazolin-5-yl]-Benzamide], 326 to 328 °C; as for `Cc1nc2cccc(CNC(=O)Cc3ccccc3)c2c(=O)n1C1CCC(=O)NC1=O` (stereo not drawn) [Example 6.38, N-[3-(2,6-Dioxo-Piperidin-3-yl)-2-Methyl-4-Oxo-3,4-Dihydro-Quinazolin-5-ylmethyl]-2-Phenyl-Acetamide], 275 to 277 °C. As for `Cc1nc2cccc(CNC(=O)c3ccccn3)c2c(=O)n1C1CCC(=O)NC1=O` (stereo not drawn) [Example 6.39, Pyridine-2-Carboxylic Acid [3-(2,6-Dioxo-Piperidin-3-yl)-2-Methyl-4-Oxo-3,4-Dihydro-Quinazolin-5-ylmethyl]-Amide], the figure is 261 to 263 °C; as for `Cc1nc2cccc(CNC(=O)Cc3ccc(Cl)cc3)c2c(=O)n1C1CCC(=O)NC1=O` (stereo not drawn) [Example 6.40, 2-(4-Chloro-Phenyl)-N-[3-(2,6-Dioxo-Piperidin-3-yl)-2-Methyl-4-Oxo-3,4-Dihydro-Quinazolin-5-ylmethyl]-Acetamide], 285 °C (dec.). As for `Cc1nc2cccc(CNC(=O)Cc3ccc(Cl)c(Cl)c3)c2c(=O)n1C1CCC(=O)NC1=O` (stereo not drawn) [Example 6.42, 2-(3,4-Dichloro-Phenyl)-N-[3-(2,6-Dioxo-Piperidin-3-yl)-2-Methyl-4-Oxo-3,4-Dihydro-Quinazolin-5-ylmethyl]-Acetamide], the figure is 262 to 264 °C; as for `Cc1ccc(CC(=O)NCc2cccc3nc(C)n(C4CCC(=O)NC4=O)c(=O)c23)cc1F` (stereo not drawn) [Example 6.44, N-[3-(2,6-Dioxo-Piperidin-3-yl)-2-Methyl-4-Oxo-3,4-Dihydro-Quinazolin-5-ylmethyl]-2-(3-Fluoro-4-Methyl-Phenyl)-Acetamide], 264 to 266 °C; as for `Cc1nc2cccc(CNC(=O)Cc3ccc(C(F)(F)F)cc3)c2c(=O)n1C1CCC(=O)NC1=O` (stereo not drawn) [Example 6.45, N-[3-(2,6-Dioxo-Piperidin-3-yl)-2-Methyl-4-Oxo-3,4-Dihydro-Quinazolin-5-ylmethyl]-2-(4-Trifluoromethyl-Phenyl)-Acetamide], 199 to 201 °C.

`Cc1nc2cccc(CNC(=O)Nc3ccc(Cl)cc3)c2c(=O)n1C1CCC(=O)NC1=O` (stereo not drawn) [Example 6.46, 1-(4-Chloro-Phenyl)-3-[3-(2,6-Dioxo-Piperidin-3-yl)-2-Methyl-4-Oxo-3,4-Dihydro-Quinazolin-5-ylmethyl]-Urea] came in with a melting point of 255 to 257 °C.

In the case of `Cc1ccc(NC(=O)NCc2cccc3nc(C)n(C4CCC(=O)NC4=O)c(=O)c23)cc1Cl` (stereo not drawn) [Example 6.47, 1-(3-Chloro-4-Methyl-Phenyl)-3-[3-(2,6-Dioxo-Piperidin-3-yl)-2-Methyl-4-Oxo-3,4-Dihydro-Quinazolin-5-ylmethyl]-Urea], the melting point lay in the range of 250 to 252 °C.

On to `Cc1ccc(NC(=O)NCc2cccc3nc(C)n(C4CCC(=O)NC4=O)c(=O)c23)cc1C` (stereo not drawn) [Example 6.48, 1-(3,4-Dimethyl-Phenyl)-3-[3-(2,6-Dioxo-Piperidin-3-yl)-2-Methyl-4-Oxo-3,4-Dihydro-Quinazolin-5-ylmethyl]-Urea], for which the melting point was 241 to 243 °C.
